Test results taken from PMC10526447 (Biomolecules, 2023).
Like-named read-outs stand apart in the source and are kept apart here. Positions of bridges follow the written chain, without caps; N, C: chain ends. No end group written: not given here.

Experiments:
[1] = molecular target: SARS-CoV-2 HR1 peptide (SARS-CoV-2)
[2] = molecular target: human immunoglobulin G (IgG) (human); test: BLI
[3] = tested on: SARS-CoV-2 PsV; details: 48 h
[4] = molecular target: SARS-CoV S protein (Severe acute respiratory syndrome coronavirus, UniProt P59594); test: cell-based
[5] = molecular target: MERS-CoV S protein (Middle East respiratory syndrome-related coronavirus, UniProt K9N5Q8); test: cell-based
[6] = molecular target: T1, SARS-CoV-2 S protein (Severe acute respiratory syndrome coronavirus 2, UniProt P0DTC2); test: cell-based; details: IC50 against Cell-Cell Fusion Mediated by S Proteins of CoVs
[7] = molecular target: HCoV-OC43 S protein (Human coronavirus OC43, UniProt P36334); test: cell-based
[8] = molecular target: HCoV-NL63 S protein (Human coronavirus NL63, UniProt Q6Q1S2); test: cell-based
[9] = molecular target: HCoV-229E S protein (Human coronavirus 229E, UniProt P15423); test: cell-based
[10] = molecular target: T1, SARS-CoV-2 S protein; test: cell-based
[11] = tested on: Pseudotyped WIV1-CoV; details: 48 h
[12] = tested on: Pseudotyped HCoV-OC43; details: 48 h
[13] = tested on: Pseudotyped HCoV-229E; details: 48 h
[14] = tested on: Pseudotyped SARS-CoV-2; details: 48 h
[15] = tested on: live HCoV-OC43; details: 8 h
[16] = tested on: live HCoV-229E; details: 8 h
[17] = tested on: trypsin
[18] = molecular target: proteinase K (Parengyodontium album, UniProt P06873)
[19] = tested on: Caco-2, Calu-3, RD and Huh-7 cells; details: 24 h
[20] = mouse, in vivo, 50 mg/kg
[21] = rhesus monkey, in vivo, iv, 10 mg/kg
[22] = tested on: SARS-CoV PsV; details: rhesus monkey, in vivo
[23] = tested on: pseudotyped SARS-CoV-2 VOCs; details: 48 h
[24] = in vivo; details: rhesus monkey, iv, 10 mg/kg
[25] = in vitro; details: human, Caco-2, Calu-3, RD and Huh-7 cells
[26] = tested on: WIV1-CoV S protein; type: cell-based; details: read-out: IC50 against Cell-Cell Fusion Mediated by S Proteins of CoVs
[27] = tested on: HCoV-OC43; type: in vivo, ICR mice (newborn)
[28] = molecular target: SARS-CoV-2 HR1P (Severe acute respiratory syndrome coronavirus 2, UniProt P0DTC2); type: physicochemical; details: pH 7.2
[29] = in vivo; cited from earlier work
[30] = tested on: Pseudotyped SARS-CoV; details: 48 h
[31] = tested on: Pseudotyped MERS-CoV; details: 48 h
[32] = tested on: Pseudotyped SARS-CoV-2; details: 48 h; remark: listed apart in the source
[33] = tested on: Pseudotyped HCoV-NL63; details: 48 h
[34] = tested on: Pseudotyped SARS-CoV; details: 48 h; remark: listed apart in the source
[35] = tested on: Pseudotyped MERS-CoV; details: 48 h; remark: listed apart in the source
[36] = tested on: Pseudotyped HCoV-NL63; details: 48 h; remark: listed apart in the source

Sequence of proteinase K (P06873 106-384): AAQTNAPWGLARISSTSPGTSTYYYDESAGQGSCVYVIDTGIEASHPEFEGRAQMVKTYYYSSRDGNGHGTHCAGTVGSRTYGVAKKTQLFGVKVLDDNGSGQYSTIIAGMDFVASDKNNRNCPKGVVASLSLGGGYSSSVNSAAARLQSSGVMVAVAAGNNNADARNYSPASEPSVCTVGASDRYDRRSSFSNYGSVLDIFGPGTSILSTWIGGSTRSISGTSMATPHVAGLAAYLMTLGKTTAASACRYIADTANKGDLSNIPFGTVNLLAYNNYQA

For EK1 (peptide), the IC50 against pseudotyped SARS-CoV-2 infection of Caco-2 cells [1] was 590 nM and the IC50 against pseudotyped SARS-CoV-2 infection of Calu-3 cells [1] was 253 nM.
For “human immunoglobulin G Fc-binding peptide (IBP)”, the Kd [2] was 1030 nM.
Work on IBP-EK1 (peptide) yielded an IC50 against pseudotyped SARS-CoV-2 infection of Caco-2 cells [1] of 512 nM, an IC50 against pseudotyped SARS-CoV-2 infection of Calu-3 cells [1] of 180 nM and a Kd [2] of 217 nM.
“SLDQINVTFLDLEYEMKKLEEAIKKLEESYIDLKELDCAWHLGELVWCT (disulfide 38-48) [EK1-IBP]” showed an IC50 [3] of 1180 nM.
For “DCAWHLGELVWCTSLDQINVTFLDLEYEMKKLEEAIKKLEESYIDLKEL (disulfide 2-12) [IBP-EK1]”, the IC50 [4] was 229 nM, the IC50 [5] was 376 nM and the IC50 [6] was 512 nM. The IC50 [7] was 829 nM, the IC50 [8] was 212 nM and the IC50 [9] was 478 nM. It also gave an IC50 [10] of 325 nM, an IC50 [11] of 6050 nM and an IC50 [12] of 3570 nM. It also gave an IC50 [13] of 3340 nM, an IC50 [14] of 180 nM and an IC50 [15] of 744 nM. For the same compound, the IC50 [16] was 4140 nM, the IC50 [3] was 788 nM and the “residual inhibitory activity against SARS-CoV-2 PsV after trypsin treatment” value [17] was “significantly better inhibitory activities than those of EK1”. The “residual inhibitory activity against SARS-CoV-2 PsV after proteinase K treatment” value [18] was “significantly better inhibitory activities than those of EK1”, the “selectivity index (SI = CC50/IC50)” value [19] was “more than 100” and the “ALT level in sera” value [20] was “in the normal range”. The “IBP-EK1-specific antibodies in sera (immunogenicity)” value [20] was “no IBP-EK1-specific antibodies were detected”, the body weight changes [20] was “weight changes similar to those of the PBS-treated group” and the “creatinine level in sera” value [20] was “in the normal range”. For the same compound, the “histopathology of lungs, livers and kidneys (H&E)” value [20] was “no pathological abnormalities in their organs”, the AUC [21] was 2207.03 µg·h/mL and the “half-life relative to that of EK1” value [22] was “about 21 fold”. For the same compound, the AUC ([22]; iv, 10 mg/kg) was 5228.98 µg·h/mL, the Cmax ([22]; iv, 10 mg/kg) was 116.09 µg/mL and the Tmax ([22]; iv, 10 mg/kg) was 2 h. It also gave a t1/2 ([22]; iv, 10 mg/kg) of 39.72 h, an IC50 [23] of 171 to 296 nM and a Cmax [24] of 51.7 µg/mL. The Tmax [24] was 2 h, the half-life [24] was 37.7 h and the level at 24 h [24] was about 24 µg/mL. It also gave a CC50 at 48 h [25] of over 100000 nM.
With `CC[C@H](C)[C@H](NC(=O)[C@H](C)NC(=O)[C@H](CCC(=O)O)NC(=O)[C@H](CCC(=O)O)NC(=O)[C@H](CC(C)C)NC(=O)[C@H](CCCCN)NC(=O)[C@H](CCCCN)NC(=O)[C@H](CCSC)NC(=O)[C@H](CCC(=O)O)NC(=O)[C@H](Cc1ccc(O)cc1)NC(=O)[C@H](CCC(=O)O)NC(=O)[C@H](CC(C)C)NC(=O)[C@H](CC(=O)O)NC(=O)[C@H](CC(C)C)NC(=O)[C@H](Cc1ccccc1)NC(=O)[C@@H](NC(=O)[C@@H](NC(=O)[C@H](CC(N)=O)NC(=O)[C@@H](NC(=O)[C@H](CCC(N)=O)NC(=O)[C@H](CC(=O)O)NC(=O)[C@H](CC(C)C)NC(=O)[C@@H](N)CO)[C@@H](C)CC)C(C)C)[C@@H](C)O)C(=O)N[C@@H](CCCCN)C(=O)N[C@@H](CCCCN)C(=O)N[C@@H](CC(C)C)C(=O)N[C@@H](CCC(=O)O)C(=O)N[C@@H](CCC(=O)O)C(=O)N[C@@H](CO)C(=O)N[C@@H](Cc1ccc(O)cc1)C(=O)N[C@H](C(=O)N[C@@H](CC(=O)O)C(=O)N[C@@H](CC(C)C)C(=O)N[C@@H](CCCCN)C(=O)N[C@@H](CCC(=O)O)C(=O)N[C@@H](CC(C)C)C(=O)O)[C@@H](C)CC` [EK1] the IC50 [26] was 588 nM, the “protection (survival), prophylactic” value ([27]; 3-day-old suckling mice, 10 mg/kg intranasal single dose 1 h before HCoV-OC43 (100 TCID50) challenge) was 100% and the “viral loads in mouse brain, therapeutic group” value ([27]; day 5 post challenge, 10 mg/kg intranasal 1 h after challenge, vs viral control) was “significantly different from those of viral control group”. The “viral loads in mouse brain, prophylactic group” value ([27]; day 5 post challenge, 10 mg/kg intranasal 1 h before challenge, relative RNA quantification vs viral control) was “very low”, the “Tm of complex with SARS-CoV-2 HR1P” value [28] was 51.05 °C and the IC50 [11] was 6980 nM. It also gave an IC50 [12] of 3610 nM, an IC50 [13] of 3480 nM and an IC50 [14] of 253 nM. For the same compound, the IC50 [15] was 764 nM, the IC50 [16] was 7590 nM and the IC50 [3] was 791 nM. For the same compound, the “ex vivo inhibition of SARS-CoV PsV by serum (fold of its IC50)” value ([22]; iv, 10 mg/kg) was “below 450 fold”, the t1/2 ([22]; iv, 10 mg/kg) was 1.77 h and the “t1/2 (reported value)” value [29] was 1.8 h.
Compound `CC(C)C[C@@H]1NC(=O)[C@H](Cc2c[nH]cn2)NC(=O)[C@H](Cc2c[nH]c3ccccc23)NC(=O)[C@H](C)NC(=O)[C@@H](NC(=O)[C@@H](N)CC(=O)O)CSSC[C@@H](C(=O)N[C@H](C(=O)O)[C@@H](C)O)NC(=O)[C@H](Cc2c[nH]c3ccccc23)NC(=O)[C@H](C(C)C)NC(=O)[C@H](CC(C)C)NC(=O)[C@H](CCC(=O)O)NC(=O)CNC1=O` [IBP] has an IC50 [4] of over 50000 nM, an IC50 [5] of over 50000 nM and an IC50 [6] of over 100000 nM. The IC50 [7] was over 50000 nM, the IC50 [8] was over 50000 nM and the IC50 [9] was over 50000 nM. The IC50 [30] was over 50000 nM, the IC50 [31] was over 50000 nM and the IC50 [32] was over 50000 nM. It also gave an IC50 [11] of over 50000 nM, an IC50 [12] of over 50000 nM and an IC50 [33] of over 50000 nM. The IC50 [13] was over 50000 nM, the IC50 [34] was over 50000 nM and the IC50 [35] was over 50000 nM. It also gave an IC50 [14] of over 50000 nM, an IC50 [36] of over 50000 nM and an IC50 [15] of over 50000 nM. It also gave an IC50 [16] of over 50000 nM and an IC50 [3] of over 100000 nM.
In the case of “DCAWHLGELVWCTGGSSLDQINVTFLDLEYEMKKLEEAIKKLEESYIDLKEL (disulfide 2-12) [IBP-L-EK1]”, the IC50 [3] is reported as 806 nM.
Compound “SLDQINVTFLDLEYEMKKLEEAIKKLEESYIDLKELGGSDCAWHLGELVWCT (disulfide 41-51) [EK1-L-IBP]” has an IC50 [3] of 1170 nM.
